Test results as given in US9000190B2, “Amide compound or salt thereof, biofilm inhibitor, biofilm remover and disinfectant containing the same” (The University of Tokyo, priority 2006, dated 2015).

Tests used:
[1] = system: Pseudomonas aeruginosa (gfp expression PAO1-strain); assay: Evaluation test for biofilm removal effect with respect to Pseudomonas aeruginosa (flow cell system); format: cell-based; conditions: test liquid 100 μM; for state of biofilm removal (disappearance of deposited biofilm, fluorescence confocal microscope): observed after 3, 4, 5, 6, 7 and 10 days; for time course of biofilm during removal test: up to 10 days
Procedure: With the flow cell system of FIG. 1, a removal effect against biofilms formed by Pseudomonas aeruginosa was evaluated for each of the amide compounds produced in Production Examples 1, 3, 5, and 6 (Compounds 1a-1, 1b-1, 1c-1, 1c-2), and for Comparative Compounds 1 to 3 as comparative examples.
The evaluation for biofilm removal effect was performed as follows. After cultivation of bacterias in the glass cell (4) of the flow cell system to grow a biofilm in the inner cell wall, a test liquid containing one of the amide compounds was applied to the biofilm.
As with Experiment Example 1, a gfp expression PAO1-strain was used.
At for the culture medium, the glucose-containing FAB culture medium, trace metal solution, and bacterial suspension as those of Experiment Example 1 were used.
(§1) The test liquid was prepared by dissolving 100 μM of each of the Compounds 1a-1, 1b-1, 1c-1 and 1c-2 according to Production Examples 1, 3, 5 and 6 and 100 μM of Comparative Compounds 1 to 3 as comparative examples denoted by the following formula in dimethyl sulfoxide (DMSO), and supplying the resulting DMSO solutions to a 0.3 mM glucose-containing FAB culture medium so that the concentration of each compound becomes 0.1%(v/v).
(§2) A DMSO not containing the compound was used as a control test liquid.
(§3) The flow cell system was filled with hydrous ethanol (70 volume %), and was allowed to stand for at least 12 hours to sterilize the system. Then, air having been filtrated by a membrane filter (8a) was supplied into the flow cell system using the peristaltic pump (2) to dry the system. Thereafter, the system was filled with a 0.3 mM glucose-containing FAB culture medium. 500 μL of the bacterial suspension was injected into the glass cell (4) from the upper surface, and the glass cell was sealed by turning off the three-way turncock (7a,7b). The cell as such was allowed to stand for an hour at room temperature.
After the static culture, two of the three-way turncocks (7a,7b) were turned on, so as to supply each test liquid and control test liquid at a flow rate of 200 μL per minute. With a fluorescence confocal microscope, the process of biofilm formation (deposition) by the Pseudomonas aeruginosa (gfp expression PAO1-strain) adhered to the inner wall of the glass cell was observed three-dimensionally from above to observe changes over time (after 3 days, 4 days, 5 days, 6 days, 7 days, and 10 days). Note that the test liquid and the control test liquid were replaced with fresh liquids every 36 hours.

[2] = system: Porphyromonas gingivalis 381-strain; assay: Evaluation test for biofilm formation inhibition effect against periodontitis pathogenic bacteria (flow cell, HA disks, turbidity); format: cell-based; conditions: for inhibition of biofilm formation caused by periodontitis pathogenic bacteria (conclusion in words) / Mean OD Value: 100 μM; for inhibition of biofilm formation caused by periodontitis pathogenic bacteria (conclusion in words): 14 days; for Mean OD Value: turbidity of suspended biofilm at 550 nm
Procedure: As with Experiment Example 1, using the flow cell system of FIG. 1, an inhibitory effect against biofilm formation by periodontitis pathogenic bacteria was evaluated for each of the amide compounds produced in Production Examples 1, 3, 5, and 6 (Compounds 1a-1, 1b-1, 1c-1, 1c-2).
Periodontitis pathogenic bacteria Porphyromonas gingivalis 381-strain (clinical strain) was used.
A GAM culture medium containing hemin 5 μg/L and menadione 1 μg/L was used.
The 381-strain was inoculated in the GAM culture medium, and cultivated until stationary phase (OD550=1.8). Then the culture medium was diluted 20-fold by a fresh GAM culture medium containing the above-mentioned substances.
as §1, with “1c-1, or” for “1c-1 and”, “and 2” for “to 3”, “examples” for “examples denoted by the following formula”, “the above-mentioned bacterial suspensions” for “a 0.3 mM glucose-containing FAB culture medium”
as §2
The glass cell (4) of the flow cell system (see FIG. 1) was replaced with a stainless cell (3×7×120 mm), and 10 hydroxyapatite (HA) disks (6 mm in diameter, 1 mm in thickness) were placed in the cell. The HA disks had been subjected to salivary treatment overnight. Each of the test liquids and control test liquids was circulated in the system at a flow rate of 8 mL/min for 14 days. Note that the test liquids and the control test liquids were replaced with fresh liquids every two days.
After the cultivation, the HA disks were dipped in 300 μL of sterile distilled water, and treated by supersonic wave for 30 minutes at 4° C. The biofilms formed in the HA disks were peeled off and suspended in distilled water. Then, 100 μL of the suspension liquid was measured for the turbidity with an absorptiometer (C07500 colorimeter, product of Funakoshi) (measurement wavelength=550 nm).
A mean OD was found based on the resulting OD values, excluding the minimum and maximum values. Also, a mean value of the turbidities for the Control Test Liquids was found in the same manner as the control mean OD value. A biofilm formation inhibition rate (Inhibition Rate) was found by the following formula. Biofilm Formation Inhibition Rate (%)={(Mean OD Value)/(Mean Comparison OD Value)}×100

[3] = system: Pseudomonas aeruginosa (gfp expression PAO1-strain); assay: Evaluation test for biofilm formation inhibition effect against Pseudomonas aeruginosa (flow cell system); format: cell-based; conditions: flow 200 μL per minute, observed after 1, 48, 60, 72, 84 hours
Procedure: With the flow cell system shown in FIG. 1, an inhibitory effect against biofilm formation by Pseudomonas aeruginosa was evaluated for each of the amide compounds produced in Production Examples 1, 3, 5, 6 and 7 (Compounds 1a-1, 1b-1, 1c-1, 1c-2, 1d-1), and for each of Comparative Compounds (Comparative Example) 1 to 3 denoted by the following formulas.
A culture medium bottle (1), a peristaltic pump (2), a glass cell (4) and a waste fluid bottle (5) are connected via a silicon tube (6) so that a culture medium (9) is supplied to the glass cell (4) from the culture medium bottle (1) using the peristaltic pump (2). The system includes an air removal section (3) between the peristaltic pump (2) and a turncock (7a), for removing the entrained air. All instruments in the flow cell system are sterilized using gamma-rays or an autoclave.
As specifically described later, the inhibitory effect against biofilm formation of each of the amide compounds is examined in the following manner. Bacteria are cultured in a glass cell (4) to grow a biofilm on the inner wall of the cell, and a test liquid containing one of the amide compounds is applied to the biofilm. Then the state of the biofilm is observed to evaluate the inhibitory effect against biofilm formation of the compound using a fluorescence confocal microscope (Leica TCS SP2: product of Leica).
The bacteria was prepared by inserting a pTdk-LVAgfp plasmid into a Pseudomonas aeruginosa PAO1-strain using the electroportion method so that the Pseudomonas aeruginosa PAO1-strain is transformed to express Green Fluorescent Protein (hereinafter referred to as “gfp expression PAO1-strain”) (see Teresa R. et al., Applied and Environmental Microbiology, April 2001, p. 1865-1873).
A 30 mM glucose-containing FAB culture medium was used for preincubation, and a 0.3 mM glucose-containing FAB culture medium was used for main cultivation.
The glucose-containing FAB culture medium was prepared by adding 200 μg/mL of carbenicillin to an aqueous solution containing 30 mM glucose or 0.3 mM glucose, 15 mM ammonium sulfate, 33.7 mM disodium hydrogenphosphate dihydrate, 22.1 mM potassium dihydrogen phosphate, 51.7 mM sodium chloride, 0.47 mM magnesium chloride, 0.08 mM calcium chloride and the following 0.1% trace metal solution.
An aqueous solution containing 1.16 mM calcium sulfate dihydrate, 0.72 mM iron sulfate heptahydrate, 0.08 mM manganous sulfate monohydrate, 0.08 mM copper sulfate pentahydrate, 0.07 mM zinc sulfate heptahydrate, 0.04 mM cobalt sulfate heptahydrate, 0.04 mM […], and 0.08 mM boric acid.
A gfp expression PAO1-strain was inoculated in a 30 mM glucose-containing FAB culture medium, and was subjected to shake culture at 37° C. in an isothermal tank overnight. The obtained overnight culture liquid was diluted by a 30 mM glucose-containing FAB culture medium to OD590=0.1.
as §1, with “100-250” for “100”, “1c-1, 1c-2, or 1d-1” for “1c-1 and 1c-2”, “3 and” for “3,”, “5 to 7” for “5”, “100-250” for “6 and 100”, “examples” for “examples denoted by the following formula”
as §2
as §3, with “ethanol of 70” for “ethanol (70”, “volume %,” for “volume %),”, “of a” for “of the”, “for 1” for “for an”, “temperature. […]” for “temperature.”

E. coli ATCC 25922 = conditions: Publicly-known data; cited from earlier work
S. aureus ATCC 29213 = conditions: Publicly-known data; cited from earlier work
P. aeruginosa ATCC 27853 = conditions: Publicly-known data; cited from earlier work

Compound: CCCCCCCCCCCC(=O)NC1CCNC1 (stereo not shown) [Compound 1a-1, N-(pyrrolidin-3-yl) dodecanoyl amide]
- state of biofilm removal (disappearance of deposited biofilm, fluorescence confocal microscope) [1]: the gradual disappearance of the deposited biofilm with time was observed
- inhibition of biofilm formation caused by periodontitis pathogenic bacteria (conclusion in words) [2]: capable of inhibiting biofilm formation
- state of biofilm formation (fluorescence confocal microscope) compared with control test liquid ([3]; test liquid 250 μM): such biofilm formation was not observed

Compound: NC[C@H]1O[C@H](O[C@H]2[C@H](O)[C@@H](O[C@H]3O[C@H](CO)[C@@H](O)[C@H](N)[C@H]3O)[C@H](N)C[C@@H]2N)[C@H](N)C[C@@H]1O [TOB, Tobramycin]
- MIC (μg/mL) from M100-S16 (E. coli ATCC 25922): 0.25 to 1 µg/mL
- MIC (μg/mL) from M100-S16 (S. aureus ATCC 29213): 0.12 to 1 µg/mL
- MIC (μg/mL) from M100-S16 (P. aeruginosa ATCC 27853): 0.25 to 1 µg/mL

Compound: CC[C@H]1OC(=O)[C@H](C)[C@@H](O[C@H]2C[C@@](C)(OC)[C@@H](O)[C@H](C)O2)[C@H](C)[C@@H](O[C@@H]2O[C@H](C)C[C@H](N(C)C)[C@H]2O)[C@](C)(O)C[C@@H](C)CN(C)[C@H](C)[C@@H](O)[C@]1(C)O [AZM, Azithromycin]
- MIC (μg/mL) from M100-S16 (S. aureus ATCC 29213): 0.5 to 2 µg/mL

Compound: CCCC(=O)NN1CCCC1 [Comparative Compound 2, reference compound]
- Mean OD Value ([2]; HA disks, circulated 14 days): 0.719
- inhibition at 100 µM ([2]; Porphyromonas gingivalis, 381STRAIN, 336 h, HA disks, circulated 14 days, relative to control test liquid (DMSO), read-out: Biofilm Formation Inhibition Rate (%)): -49%
- state of biofilm formation (fluorescence confocal microscope) compared with control test liquid ([3]; test liquid 100 μM): the huge, thick biofilm was observed as in the control test

Compound: CC(C)(O/N=C(\C(=O)N[C@@H]1C(=O)N2C(C(=O)[O-])=C(C[n+]3ccccc3)CS[C@H]12)c1csc(N)n1)C(=O)O [CAZ, Ceftazidime]
- MIC (μg/mL) from M100-S16 (E. coli ATCC 25922): 0.06 to 0.5 µg/mL
- MIC (μg/mL) from M100-S16 (S. aureus ATCC 29213): 4 to 16 µg/mL
- MIC (μg/mL) from M100-S16 (P. aeruginosa ATCC 27853): 1 to 4 µg/mL

Compound: CCCCCCCCCC(O)CC(=O)NN1CCCC1 (stereo not shown) [Compound 1c-2, N-(pyrrolidin-1-yl)-3-hydroxy dodecanoyl amide]
- state of biofilm removal (disappearance of deposited biofilm, fluorescence confocal microscope) [1]: the gradual disappearance of the deposited biofilm with time was observed
- time course of biofilm during removal test [1]: the biofilm was first reduced and then increased again after a six-day cultivation, before it reduced again until it disappeared
- inhibition of biofilm formation caused by periodontitis pathogenic bacteria (conclusion in words) [2]: capable of inhibiting biofilm formation
- state of biofilm formation (fluorescence confocal microscope) compared with control test liquid ([3]; test liquid 100 μM): such biofilm formation was not observed

Compound: CCCCCCCCCCCC(=O)NN1CCCCC1 [Compound 1d-1, N-(piperidine-1-yl) dodecanoyl amide]
- state of biofilm formation (fluorescence confocal microscope) compared with control test liquid ([3]; test liquid 100 μM): such biofilm formation was not observed

Compound: CCCCCCCCCCCC(=O)NN1CCCC1 [Compound 1c-1, N-(pyrrolidin-1-yl) dodecanoyl amide]
- state of biofilm removal (disappearance of deposited biofilm, fluorescence confocal microscope) [1]: the gradual disappearance of the deposited biofilm with time was observed
- time course of biofilm during removal test [1]: the biofilm was first reduced and then increased again after a six-day cultivation, before it reduced again until it disappeared
- inhibition of biofilm formation caused by periodontitis pathogenic bacteria (conclusion in words) [2]: capable of inhibiting biofilm formation
- state of biofilm formation (fluorescence confocal microscope) compared with control test liquid ([3]; test liquid 100 μM): such biofilm formation was not observed

Compound: CCCC(=O)NN1CCCCC1 [Comparative Compound 3, reference compound]
- state of biofilm formation (fluorescence confocal microscope) compared with control test liquid ([3]; test liquid 100 μM): the huge, thick biofilm was observed as in the control test

Compound: CCCCCCCCCC(=O)CC(=O)Nc1ccccc1O [Comparative Compound 1, reference compound]
- Mean OD Value ([2]; HA disks, circulated 14 days): 0.629
- state of biofilm formation (fluorescence confocal microscope) compared with control test liquid ([3]; test liquid 100 μM): the huge, thick biofilm was observed as in the control test

Compound: CCCCCCCCCCCC(=O)NC1CCNCC1 [Compound 1b-1, N-(piperidine-4-yl) dodecanoyl amide]
- state of biofilm removal (disappearance of deposited biofilm, fluorescence confocal microscope) [1]: the gradual disappearance of the deposited biofilm with time was observed
- inhibition of biofilm formation caused by periodontitis pathogenic bacteria (conclusion in words) [2]: capable of inhibiting biofilm formation
- state of biofilm formation (fluorescence confocal microscope) compared with control test liquid ([3]; test liquid 250 μM): such biofilm formation was not observed
